Converted amounts (≈) assume the structure as drawn.
Experiments:
[1] = target: JNK3 (Homo sapiens, UniProt P53779); assay: JNK3 in vitro assay (c-jun phosphorylation, 33P incorporation, SPA); assay type: biochemical; details: recombinant pre-activated GST-JNK3, biotinylated GST-c-Jun, 2 μM 33γ-ATP
Method: The phosphorylation of c-jun by JNK2 or JNK3 may be followed by monitoring the incorporation of ^33P into c-jun following the protocol below. The inhibitory activity of the compounds according to formula I, in respect of c-jun phosphorylation through JNK, is determined by calculating the phosphorylation activity of a JNK in the presence or absence of the test compounds according to formula I.
JNK3 and/or -2 assays are performed in 96 well MTT plates: incubation of 0.5 μg of recombinant, pre-activated GST-JNK3 or GST-JNK2 with 1 μg of recombinant, biotinylated GST-c-Jun and 2 μM ^33γ-ATP (2 nCi/μl), in the presence or absence of compounds according to formula I and in a reaction volume of 50 μl containing 50 mM Tris-HCl, pH 8.0; 10 mM MgCl2; 1 mM Dithiothreitol, and 100 μM NaVO4. The incubation is performed for 120 min. at R.T and stopped upon addition of 200 μl of a solution containing 250 μg of Streptavidine-coated SPA beads (Amersham, Inc.)*, 5 mM EDTA, 0.1% Triton X-100 and 50 μM ATP, in phosphate saline buffer. After incubation for 60 minutes at RT, beads are sedimented by centrifugation at 1500×g for 5 minutes, resuspended in 200 μl of PBS containing 5 mM EDTA, 0.1% Triton X-100 and 50 μM ATP and the radioactivity measured in a scintillation β counter, following sedimentation of the beads as described above. By replacing biotinylated GST-c Jun with biotinylated GST-1ATF2 or biotinylated myelin basic protein, this assay may also be used to measure inhibition of pre-activated p38 and ERK MAP Kinases, respectively.

[2] = Solubility in water at pH 7.4; assay type: physicochemical; details: aqueous buffer, pH 7.4, r.t.
Method: The compounds have been assessed in respect of their solubility in water, at a pH of 7.4 at room temeprature. In general the solubility of compounds of formula (I) is in a range of at least 50 μg/mL solvent, more preferably of at least 100 μg/mL solvent.

Sequence of JNK3 (P53779 whole entry): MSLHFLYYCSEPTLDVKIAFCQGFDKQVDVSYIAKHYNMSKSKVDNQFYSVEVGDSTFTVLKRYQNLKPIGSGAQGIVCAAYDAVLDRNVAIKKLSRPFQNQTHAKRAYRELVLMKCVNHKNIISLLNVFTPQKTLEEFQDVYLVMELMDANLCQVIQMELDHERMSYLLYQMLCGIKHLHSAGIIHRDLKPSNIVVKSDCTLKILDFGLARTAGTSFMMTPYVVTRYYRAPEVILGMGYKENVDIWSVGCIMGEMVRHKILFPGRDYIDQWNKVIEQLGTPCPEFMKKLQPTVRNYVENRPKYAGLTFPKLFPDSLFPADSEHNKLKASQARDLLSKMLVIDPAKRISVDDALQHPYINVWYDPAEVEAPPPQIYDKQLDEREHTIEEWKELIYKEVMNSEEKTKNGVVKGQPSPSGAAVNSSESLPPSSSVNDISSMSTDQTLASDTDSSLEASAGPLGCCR

Row | Compound | IC50 [1] | solubility [2]
1 | N-({4-(hydrazinocarbonyl)-5-[(4-{3-[(trifluoro-methyl)sulfonyl]anilino}piperidin-1-yl)sulfonyl]-thien-2-yl}methyl)-3-methoxybenzamide [Example 6] | < 100 nM | 
2 | COc1cccc(C(=O)NCc2cc(C(=O)O)c(S(=O)(=O)N3CCC(NCc4ccc(C(F)(F)F)cc4)CC3)s2)c1 [Example 4, 5-{[(3-methoxybenzoyl)amino]methyl}-2-[(4-{[4-(trifluoromethyl)benzyl]amino}-1-piperidinyl)sulfonyl]-3-thiophenecarboxylic acid] | < 100 nM | 
3 | COc1cccc(C(=O)NCc2cc(C(=O)O)c(S(=O)(=O)N3CCC(Nc4cccc(S(=O)(=O)C(F)(F)F)c4)CC3)s2)c1 [Example 1, 5-{[(3-methoxybenzoyl)amino]methyl}-2-[(4-{3-[(trifluoromethyl) -sulfonyl]anilino}piperidin-1-yl)sulfonyl]thiophene-3-carboxylic acid] | < 100 nM | 180 µg/mL (≈ 272 µM)

— US20040077632A1, “Pharmaceutically active hydrophilic sulfonamide derivatives as inhibitors of protein junkinases” (priority 2000, published 2004)
